Source: US6274715A, “Tricyclic erythromycin derivatives” (priority 1997, dated 2001)
In brackets after ≈: the same amount, converted by molar mass.

What was measured:
Format in all cases: cell-based
[1] = tested on: PSEUDOMONAS CEPACIA 296I; assay: In vitro antibacterial activity, MIC, BHI agar dilution; details: P. cepacia 296I, unit assumed
[2] = tested on: STAPHYLOCOCCUS AUREUS 1775; assay: as above; details: S. aureus 1775, unit assumed
[3] = tested on: PSEUDOMONAS AERUGINOSA DPHD-2862; assay: as above; details: P. aeruginosa DPHD-2862, unit assumed
[4] = tested on: ESCHERICHIA COLI KNK 437; details: E. coli KNK 437; BHI agar; unit assumed
[5] = tested on: PSEUDOMONAS AERUGINOSA DPHD-5263; assay: In vitro antibacterial activity, MIC, BHI agar dilution; details: P. aeruginosa DPHD-5263, unit assumed
[6] = tested on: STAPHYLOCOCCUS AUREUS CMX 553; assay: as above; details: S. aureus CMX 553, unit assumed
[7] = tested on: STAPHYLOCOCCUS EPIDERMIDIS 3519; details: S. epidermidis 3519; BHI agar; unit assumed
[8] = tested on: STREPTOCOCCUS PYOGENES EES61; assay: In vitro antibacterial activity, MIC, BHI agar dilution
[9] = tested on: CANDIDA ALBICANS CCH 442; assay: as above; details: C. albicans CCH 442, unit assumed
[10] = tested on: STAPHYLOCOCCUS AUREUS ATCC 6538P; assay: as above; details: S. aureus ATCC 6538P, 35-37° C., 20 to 24 hours, unit assumed
[11] = tested on: ENTEROBACTER AEROGENES ATCC 13048; assay: as above; details: E. aerogenes ATCC 13048, unit assumed
[12] = tested on: ESCHERICHIA COLI JUHL; details: E. coli JUHL; BHI agar; unit assumed
[13] = tested on: STREPTOCOCCUS PYOGENES PIU 2548; assay: In vitro antibacterial activity, MIC, BHI agar dilution; details: S. pyogenes PIU 2548, unit assumed
[14] = tested on: STAPHYLOCOCCUS AUREUS A-5278; assay: as above
[15] = tested on: PSEUDOMONAS AERUGINOSA 5007; assay: as above; details: P. aeruginosa 5007, unit assumed
[16] = tested on: PSEUDOMONAS AERUGINOSA K799/61; assay: as above; details: P. aeruginosa K799/61, unit assumed
[17] = tested on: M[…] ATCC 9341; assay: as above; details: M. luteus ATCC 9341, unit assumed
How it was run: (§1)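 BHI agar dilution: twelve plates with successive compound dilutions, inoculated by replicator with 1:100 culture dilutions (1:10 for slow growers such as Micrococcus and Streptococcus), 20 to 24 hours at 35-37° C. MIC was the lowest concentration giving no growth, slight haze or sparse isolated colonies versus drug-free control; erythromycin A as class reference.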

[18] = tested on: STR[…] 508; assay: as above; details: S. agalactiae CMX 508, unit assumed
How it was run: as §1

[19] = tested on: M[…] ATCC 4698; assay: as above
How it was run: as §1

[20] = tested on: EN[…] ATCC 8043; assay: as above; details: E. faecium ATCC 8043, unit assumed
How it was run: as §1

[21] = tested on: STREPTOCOCCUS BOVIS A-5169; assay: as above
[22] = tested on: ESCHERICHIA COLI H560; assay: as above; details: E. coli H560, unit assumed
[23] = tested on: ESCHERICHIA COLI SS; assay: as above; details: E. coli SS
[24] = tested on: STAPHYLOCOCCUS AUREUS A5177; assay: as above; details: S. aureus A5177, unit assumed
[25] = tested on: STAPHYLOCOCCUS AUREUS CMX 642A; assay: as above; details: S. aureus CMX 642A, unit assumed
[26] = tested on: ACINETOBACTER CALCOACETICUS CMX 669; assay: as above; details: A. calcoaceticus CMX 669, unit assumed
[27] = tested on: MYCOBACTERIUM SMEGMATIS ATCC 114; assay: as above; details: M. smegmatis ATCC 114, unit assumed
[28] = tested on: STAPHYLOCOCCUS AUREUS NCTC10649M; assay: as above; details: S. aureus NCTC10649M, unit assumed
[29] = tested on: PSEUDOMONAS AERUGINOSA K799/WT; assay: as above; details: P. aeruginosa K799/WT, unit assumed
[30] = tested on: KLEBSIELLA PNEUMONIAE ATCC 8045; assay: as above; details: K. pneumoniae ATCC 8045, unit assumed
[31] = tested on: ESCHERICHIA COLI DC-2; assay: as above; details: E. coli DC-2, unit assumed
[32] = tested on: PROVIDENCIA STUARTII CMX 640; details: P. stuartii CMX 640; BHI agar; unit assumed
[33] = tested on: PSEUDOMONAS AERUGINOSA BMH10; assay: In vitro antibacterial activity, MIC, BHI agar dilution; details: P. aeruginosa BMH10, unit assumed
[34] = tested on: STREPTOCOCCUS PYOGENES 930; assay: as above; details: S. pyogenes 930, unit assumed
[35] = S. pyogenes EES61, unit assumed
[36] = M. luteus ATCC 4698, unit assumed

Structure (SMILES)	MIC [1] [µg/mL]	MIC [2] [µg/mL]	MIC [3] [µg/mL]	MIC [4] [µg/mL]	MIC [5] [µg/mL]	MIC [6] [µg/mL]	MIC [7] [µg/mL]	MIC [9] [µg/mL]	MIC [10] [µg/mL]	MIC [11] [µg/mL]	MIC [12] [µg/mL]	MIC [13] [µg/mL]	MIC [15] [µg/mL]	MIC [17] [µg/mL]	MIC [20] [µg/mL]	MIC [22] [µg/mL]	MIC [24] [µg/mL]	MIC [25] [µg/mL]	MIC [26] [µg/mL]	MIC [27] [µg/mL]	other results
CC[C@H]1OC(=O)[C@H](C)C(=O)[C@H](C)[C@@H](O[C@@H]2O[C@H](C)C[C@H](N(C)C)[C@H]2O)[C@](C)(OC)C[C@@H](C)C2=N[C@@H]3CN(Cc4ccncc4)C[C@@H]3N3C(=O)O[C@@]1(C)[C@H]3[C@H]2C [Example 25]	> 100	> 100	> 100	> 100	> 100	0.78 (≈ 1.01 µM)	0.78 (≈ 1.01 µM)	> 100	0.78 (≈ 1.01 µM)	> 100	> 100	0.78 (≈ 1.01 µM)	> 100	0.1 (≈ 0.13 µM)	0.1 (≈ 0.13 µM)	100 (≈ 130 µM)	0.78 (≈ 1.01 µM)	0.78 (≈ 1.01 µM)	100 (≈ 130 µM)	3.1 (≈ 4.03 µM)	MIC [8, 35]: 0.05 µg/mL (≈ 0.0649 µM); MIC ([14]; S. aureus A-5278, unit assumed): > 100 µg/mL; MIC [16]: 0.78 µg/mL (≈ 1.01 µM); MIC [18]: 0.1 µg/mL (≈ 0.13 µM); MIC [19, 36]: 0.39 µg/mL (≈ 0.507 µM); MIC ([21]; S. bovis A-5169, unit assumed): 0.1 µg/mL (≈ 0.13 µM); MIC ([23]; unit assumed): 0.78 µg/mL (≈ 1.01 µM); MIC [28]: 0.39 µg/mL (≈ 0.507 µM); MIC [29]: 100 µg/mL (≈ 130 µM); MIC [30]: > 100 µg/mL; MIC [31]: > 100 µg/mL; MIC [32]: > 100 µg/mL; MIC [33]: > 100 µg/mL; MIC [34]: > 100 µg/mL
CC[C@H]1OC(=O)[C@H](C)C(=O)[C@H](C)[C@@H](O[C@@H]2O[C@H](C)C[C@H](N(C)C)[C@H]2O)[C@](C)(OC)C[C@@H](C)C2=NC3CN(CCOc4ccccc4)CC3N3C(=O)O[C@@]1(C)[C@H]3[C@H]2C (stereo partly shown) [Example 128]	> 100	> 100	> 100	> 100	> 100	0.39 (≈ 0.488 µM)	0.39 (≈ 0.488 µM)	> 100	0.39 (≈ 0.488 µM)	> 100	100 (≈ 125 µM)	0.78 (≈ 0.976 µM)	> 100	0.05 (≈ 0.0626 µM)	0.1 (≈ 0.125 µM)	> 100	0.39 (≈ 0.488 µM)	0.39 (≈ 0.488 µM)	100 (≈ 125 µM)	1.56 (≈ 1.95 µM)	MIC [8, 35]: ≤ 0.005 µg/mL; MIC ([14]; S. aureus A-5278, unit assumed): > 100 µg/mL; MIC [16]: 6.2 µg/mL (≈ 7.76 µM); MIC [19, 36]: 0.39 µg/mL (≈ 0.488 µM); MIC ([21]; S. bovis A-5169, unit assumed): ≤ 0.005 µg/mL; MIC ([23]; unit assumed): 1.56 µg/mL (≈ 1.95 µM); MIC [28]: 0.39 µg/mL (≈ 0.488 µM); MIC [29]: > 100 µg/mL; MIC [30]: > 100 µg/mL; MIC [31]: > 100 µg/mL; MIC [32]: > 100 µg/mL; MIC [33]: > 100 µg/mL; MIC [34]: > 100 µg/mL
CC[C@H]1OC(=O)[C@H](C)C(=O)[C@H](C)[C@@H](O[C@@H]2O[C@H](C)C[C@H](N(C)C)[C@H]2O)[C@](C)(OC)C[C@@H](C)C2=NC(COCc3ccc(Cl)cc3)C(COCc3ccc(Cl)cc3)N3C(=O)O[C@@]1(C)[C@H]3[C@H]2C (stereo partly shown) [Example 147]	> 100	12.5 (≈ 13.2 µM)	> 100	> 100	> 100	1.56 (≈ 1.65 µM)	1.56 (≈ 1.65 µM)	50 (≈ 52.8 µM)	1.56 (≈ 1.65 µM)	> 100	> 100	3.1 (≈ 3.27 µM)	> 100	0.39 (≈ 0.412 µM)	0.78 (≈ 0.824 µM)	> 100	1.56 (≈ 1.65 µM)	1.56 (≈ 1.65 µM)	> 100	1.56 (≈ 1.65 µM)	MIC ([8]; S. pyogenes EES61, listed as Ex 147, unit assumed): 0.78 µg/mL (≈ 0.824 µM); MIC ([14]; S. aureus A-5278, listed as Ex 147, unit assumed): 6.2 µg/mL (≈ 6.55 µM); MIC [18]: 0.78 µg/mL (≈ 0.824 µM); MIC ([19]; M. luteus ATCC 4698, listed as Ex 147, unit assumed): 3.1 µg/mL (≈ 3.27 µM); MIC ([21]; S. bovis A-5169, listed as Ex 147, unit assumed): 0.39 µg/mL (≈ 0.412 µM); MIC ([23]; listed as Ex 147, unit assumed): > 100 µg/mL; MIC [28]: 1.56 µg/mL (≈ 1.65 µM); MIC [29]: > 100 µg/mL; MIC [30]: > 100 µg/mL; MIC [31]: > 100 µg/mL; MIC [32]: > 100 µg/mL; MIC [33]: > 100 µg/mL; MIC [34]: 3.1 µg/mL (≈ 3.27 µM)
